Results: ChEMBL document CHEMBL1126309, “Aliphatic propargylamines: potent, selective, irreversible monoamine oxidase B inhibitors” (J Med Chem, 1992)

Assays:
[1] = target: T1, Amine oxidase [flavin-containing] A (Rattus norvegicus, UniProt P21396); experiment: Inhibition of Monoamine oxidase A of rat liver mitochondrial membranes; format: cell membranes, Membrane
T1 sequence (P21396 whole entry): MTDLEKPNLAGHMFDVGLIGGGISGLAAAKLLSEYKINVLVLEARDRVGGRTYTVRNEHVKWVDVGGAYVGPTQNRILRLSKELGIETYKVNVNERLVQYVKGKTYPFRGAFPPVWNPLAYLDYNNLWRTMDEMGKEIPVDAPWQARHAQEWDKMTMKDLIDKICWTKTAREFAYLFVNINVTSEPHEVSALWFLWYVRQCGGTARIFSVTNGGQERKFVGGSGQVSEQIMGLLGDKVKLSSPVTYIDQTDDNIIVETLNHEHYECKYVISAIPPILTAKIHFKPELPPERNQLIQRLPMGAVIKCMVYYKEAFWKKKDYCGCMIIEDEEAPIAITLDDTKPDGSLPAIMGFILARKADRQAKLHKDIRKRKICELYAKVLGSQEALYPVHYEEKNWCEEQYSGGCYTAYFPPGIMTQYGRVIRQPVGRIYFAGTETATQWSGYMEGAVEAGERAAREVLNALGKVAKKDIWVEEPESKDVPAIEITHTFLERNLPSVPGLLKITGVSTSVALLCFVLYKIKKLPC

[2] = target: T2, Amine oxidase [flavin-containing] B (Rattus norvegicus, UniProt P19643); experiment: Inhibition of Monoamine oxidase B of rat liver mitochondrial membranes; format: cell membranes, Membrane
T2 sequence (P19643 whole entry): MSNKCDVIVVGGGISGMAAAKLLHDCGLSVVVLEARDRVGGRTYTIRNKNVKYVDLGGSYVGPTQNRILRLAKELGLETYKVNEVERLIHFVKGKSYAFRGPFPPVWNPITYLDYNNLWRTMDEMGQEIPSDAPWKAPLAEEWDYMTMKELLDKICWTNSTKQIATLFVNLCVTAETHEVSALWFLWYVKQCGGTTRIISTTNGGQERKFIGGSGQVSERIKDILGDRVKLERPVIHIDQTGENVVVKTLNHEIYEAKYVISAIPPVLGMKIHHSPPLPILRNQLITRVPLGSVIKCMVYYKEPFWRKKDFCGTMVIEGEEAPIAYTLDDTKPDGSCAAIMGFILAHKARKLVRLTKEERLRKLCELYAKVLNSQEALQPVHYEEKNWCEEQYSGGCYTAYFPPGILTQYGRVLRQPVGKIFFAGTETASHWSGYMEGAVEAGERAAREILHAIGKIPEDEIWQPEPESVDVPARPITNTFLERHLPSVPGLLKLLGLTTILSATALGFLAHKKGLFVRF

Mus musculus [3] = experiment: MAO activities in the mouse brain after oral administration of compound towards PE (1.9 x 10e-5 M) substrate; format: functional
Mus musculus [4] = experiment: MAO activities in the mouse brain after intraperitoneal administration of compound towards 5-HT (5 x 10e-4 M) substrate; format: functional; conditions: ip, read-out: ID50 (the source's name)
Mus musculus [5] = experiment: MAO activities in the mouse brain after oral administration of compound towards 5-HT (5 x 10e-4 M) substrate; format: functional
Mus musculus [6] = experiment: MAO activities in the mouse brain after intraperitoneal administration of compound towards PE (1.9 x 10e-5 M) substrate; format: functional; conditions: ip, read-out: ID50 (the source's name)
Rattus norvegicus = experiment: MAO activity evaluated in dissected forebrain of rat after 2 hr of administration; format: functional
Mus musculus [7] = experiment: Compound was evaluated for MAO-B activity after 9 day of chronic peritoneal administration in mouse fore brain at dose of 0.2 mg/kg; format: functional
Mus musculus [8] = experiment: Compound was evaluated for MAO-A activity after 20 day of chronic peritoneal administration in mouse fore brain at dose of 0.2 mg/kg; format: functional
Mus musculus [9] = experiment: Compound was evaluated for MAO-B activity after 1 day of chronic peritoneal administration in mouse fore brain at dose of 0.05 mg/kg; format: functional
Mus musculus [10] = experiment: Compound was evaluated for MAO-A activity after 9 day of chronic peritoneal administration in mouse fore brain at dose of 0.2 mg/kg; format: functional
Mus musculus [11] = experiment: Compound was evaluated for MAO-A activity after 1 day of chronic peritoneal administration in mouse fore brain at dose of 0.05 mg/kg; format: functional
Mus musculus [12] = experiment: Compound was evaluated for MAO-B activity after 20 day of chronic peritoneal administration in mouse fore brain at dose of 0.2 mg/kg; format: functional
Mus musculus [13] = experiment: Compound was evaluated for MAO-A activity after 9 days of chronic peritoneal administration in mouse fore brain at dose of 0.05 mg/kg; format: functional
Mus musculus [14] = experiment: Compound was evaluated for MAO-B activity after 1 day of chronic peritoneal administration in mouse fore brain at dose of 0.2 mg/kg; format: functional
Mus musculus [15] = experiment: Compound was evaluated for MAO-A activity after 1 day of chronic peritoneal administration in mouse fore brain at dose of 0.2 mg/kg; format: functional
Mus musculus [16] = experiment: Compound was evaluated for MAO-A activity after 20 days of chronic peritoneal administration in mouse fore brain at dose of 0.05 mg/kg; format: functional
Mus musculus [17] = experiment: Compound was evaluated for MAO-B activity after 9 days of chronic peritoneal administration in mouse fore brain at dose of 0.05 mg/kg; format: functional
Mus musculus [18] = experiment: Compound was evaluated for MAO-B activity after 20 days of chronic peritoneal administration in mouse fore brain at dose of 0.05 mg/kg; format: functional
Monoamine oxidase [19] = target: T3, Monoamine oxidase (Rattus norvegicus, UniProt P19643+P21396); format: protein assay
T3 sequence (P19643 whole entry): T2 sequence (P19643 whole entry)
T3 sequence (P21396 whole entry): T1 sequence (P21396 whole entry)

Mus musculus [20] = experiment: Compound was evaluated for MAO-A activity after 1 day of chronic peritoneal administration in mouse fore brain at dose of 0.25 mg/kg; format: functional
Mus musculus [21] = experiment: Compound was evaluated for MAO-B activity after 1 day of chronic peritoneal administration in mouse fore brain at dose of 0.25 mg/kg; format: functional
Mus musculus [22] = experiment: Compound was evaluated for MAO-B activity after 13 days of chronic peritoneal administration in mouse fore brain at dose of 0.25 mg/kg; format: functional
Mus musculus [23] = experiment: Compound was evaluated for MAO-A activity after 13 days of chronic peritoneal administration in mouse fore brain at dose of 0.25 mg/kg; format: functional
Monoamine oxidase [24] = target: T3, Monoamine oxidase; experiment: Compound was evaluated for the inhibition of deamination of dopamine (DA) by Monoamine oxidase at 5 x 10e-4 M; format: protein assay
Mus musculus [25] = experiment: Compound was evaluated for MAO-A activity after 21 days of chronic peritoneal administration in mouse fore brain at dose of 2 mg/kg; format: functional
Mus musculus [26] = experiment: Compound was evaluated for MAO-B activity after 1 days of chronic peritoneal administration in mouse fore brain at dose of 2 mg/kg; format: functional
Mus musculus [27] = experiment: Compound was evaluated for MAO-A activity after 1 days of chronic peritoneal administration in mouse fore brain at dose of 2 mg/kg; format: functional
Mus musculus [28] = experiment: Compound was evaluated for MAO-B activity after 21 days of chronic peritoneal administration in mouse fore brain at dose of 2 mg/kg; format: functional
Mus musculus [29] = experiment: Compound was evaluated for MAO-A activity after 10 days of chronic peritoneal administration in mouse fore brain at dose of 2 mg/kg; format: functional
Mus musculus [30] = experiment: Compound was evaluated for MAO-B activity after 10 days of chronic peritoneal administration in mouse fore brain at dose of 2 mg/kg; format: functional

Structure (SMILES)	IC50 [1]	IC50 [2]	Relative activity (Mus musculus [3])	ED50 (Mus musculus [4])	Relative activity (Mus musculus [5])	ED50 (Mus musculus [6])	ED50 (Rattus norvegicus)	further results
C#CCN(C)CCCCC(=O)OCC.O=C(O)C(=O)O	Not Active	Not Active	–	–	–	–	–	–
C#CCN(C)CCC(=O)O.O=C(O)C(=O)O	Not Active	Not Active	–	–	–	–	–	–
C#CCN(C)CCCCC.O=C(O)C(=O)O	120000 nM	370 nM	72%	> 218 µmol/kg	97%	6.8 µmol/kg	–	–
C#CCN(C)CCCC.Cl	98000 nM	1400 nM	67%	478 µmol/kg	98%	11.2 µmol/kg	141 µmol/kg	–
C#CCN(C)C(C)CCCC.Cl (centres undefined)	90000 nM	82 nM	–	262 µmol/kg	–	1.2 µmol/kg	5.1 µmol/kg	Relative activity (Mus musculus [7]): 35%; Relative activity (Mus musculus [8]): 81%; Relative activity (Mus musculus [9]): 55%; Relative activity (Mus musculus [10]): 103%; Relative activity (Mus musculus [11]): 104%; Relative activity (Mus musculus [12]): 27%; Relative activity (Mus musculus [13]): 95%; Relative activity (Mus musculus [14]): 36%; Relative activity (Mus musculus [15]): 103%; Relative activity (Mus musculus [16]): 76%; Relative activity (Mus musculus [17]): 41%; Relative activity (Mus musculus [18]): 37%
C#CCN(C)C(C)CCCCC.Cl (centres undefined)	19000 nM	210 nM	39%	127 µmol/kg	99%	2.6 µmol/kg	–	IC50 (Monoamine oxidase [19]): 320 nM
C#CCN(C)CCCCCCO.Cl	Not Active	120000 nM	–	–	–	–	–	–
C#CCN(C)C(C)CCCCCCCCCC.Cl (centres undefined)	1900 nM	39 nM	64%	223 µmol/kg	107%	15.5 µmol/kg	–	IC50 (Monoamine oxidase [19]): 280 nM
C#CCN(C)C(C)CCCCCCCC.Cl (centres undefined)	3900 nM	180 nM	104%	144 µmol/kg	97%	15 µmol/kg	171 µmol/kg	Relative activity (Mus musculus [20]): 85%; Relative activity (Mus musculus [21]): 94%; Relative activity (Mus musculus [22]): 70%; IC50 (Monoamine oxidase [19]): 210 nM; Relative activity (Mus musculus [23]): 79%
C#CCN(C)C(C)CCCCO.Cl (centres undefined)	Not Active	130000 nM	–	–	–	–	–	–
C#CCNC.Cl	Not Active	Not Active	–	–	–	–	–	–
C#CCN(C)C(CC)CC	2400 nM	180 nM	–	52.9 µmol/kg	–	2.7 µmol/kg	–	–
C#CCN(C)C(C)C.Cl	Not Active	19000 nM	–	–	–	–	–	IC50 (Monoamine oxidase [24]): 28000 nM
C#CCN(C)C(C)CCC(=O)OCC.Cl (centres undefined)	Not Active	Not Active	–	–	–	–	–	–
C#CCN(C)CCCCCCC.Cl	38000 nM	–	118%	> 491 µmol/kg	123%	75.6 µmol/kg	–	–
C#CCN(C)C(C)CCC.Cl.O=C(O)C(=O)O (centres undefined)	12000 nM	180 nM	31%	114 µmol/kg	89%	1.7 µmol/kg	5.2 µmol/kg	Relative activity (Mus musculus [25]): 31%; Relative activity (Mus musculus [26]): 40%; Relative activity (Mus musculus [27]): 91%; Relative activity (Mus musculus [28]): 18%; Relative activity (Mus musculus [29]): 49%; Relative activity (Mus musculus [20]): 102%; Relative activity (Mus musculus [21]): 94%; Relative activity (Mus musculus [22]): 35%; IC50 (Monoamine oxidase [19]): 5600 nM; Relative activity (Mus musculus [23]): 89%; Relative activity (Mus musculus [30]): 19%
C#CCN(C)C(C)CC (centres undefined)	–	–	–	69.7 µmol/kg	–	4.2 µmol/kg	31 µmol/kg	–
C#CCN(C)[C@H](C)Cc1ccccc1 [SELEGILINE]	–	–	–	143 µmol/kg	–	2.3 µmol/kg	26.3 µmol/kg	–
